The text below walks through data of US12509462B2, “3-(phenylsulfonyl)-[1,2,3]triazolo[1,5A]quinazolin-5(4H)-one derivatives” (BIOVERSYS AG, priority 2018, dated 2025).

The subject of series [1] is Staphylococcus aureus MRSA strain (USA300 isolate). Briefly: Hemolysis Assay II (exotoxin-mediated lysis of rabbit red blood cells by culture filtrate). Type of series: cell-based. The note with it: Erythrocyte; for minimal effective concentration / IC95: 18 h; for minimal effective concentration: absorbance <2× the average of the complete inhibition control, read-out: Hemolysis assay II MEC (minimal effective concentration); for IC95: read-out: Hemolysis assay II IC95; for IC50: 18 h culture in CA-MHB, rabbit red blood cells.

A further series deals with MRSA (USA300 isolate). The series is described as follows: Hemolysis Assay I (exotoxin-mediated lysis of rabbit red blood cells by culture supernatant). Type of series: cell-based, Staphylococcus aureus. The conditions noted are these: Staphylococcus aureus, Erythrocyte, 30/10/3.3/1.1/0.37 μM compound, values at OD600 of 0.75.
The next series deals with MRSA. The series is described as follows: MIC by broth microdilution in CA-MHB (CLSI). The conditions noted are these: Staphylococcus aureus, 18 h, read-out: MIC on MRSA. On the technique in general: In broth dilution the organism is exposed to a series of concentrations in liquid medium.
Another series concerns HepG2. The conditions noted are these: 48 h.

Molecules are shown by their SMILES. Values after ≈ are worked out from the molar mass of the structure shown. Where two headings read alike, the source gives them in different places.

The IC95 is the concentration needed for an effect of 95%. One may read the IC50 as the concentration needed to halve the response being measured. A lower IC50 goes with greater potency in that assay. The MIC is the smallest concentration in the dilution series that meets the test's criterion for growth inhibition. Turning to `Cc1ccc(S(=O)(=O)c2nnn3c2[nH]c(=O)c2ccccc23)c(Cl)c1` [Compound 35, 3-(2-chloro-4-methyl-phenyl)sulfonyl-4H-triazolo[1,5-a]quinazolin-5-one], in series [1], the minimal effective concentration came out at 4 µg/mL, the IC95 was found to be 3.7 µg/mL (≈ 9.87 µM) and the concentration for half-maximal inhibition (IC50) was 1.25 µg/mL (≈ 3.34 µM). Also, 1500 nM corresponded to half-maximal inhibition in the series with MRSA (USA300 isolate) (IC50). The MIC in the series with MRSA was no less than 100 µM. In addition, the “LD50 HepG2” value with HepG2 (human) is recorded as “>=100 μM”.
As to `Cc1ccc(S(=O)(=O)c2nnn3c2[nH]c(=O)c2ccc(O)cc23)c(C)c1` [Compound 36, 3-(2,4-dimethylphenyl)sulfonyl-8-hydroxy-4H-triazolo[1,5-a]quinazolin-5-one], in series [1], the minimal effective concentration is 4 µg/mL, the IC95 was 4.5 µg/mL (≈ 12.1 µM) and inhibition was half-maximal at 1.7 µg/mL (≈ 4.59 µM) (IC50). In addition, in the series with MRSA (USA300 isolate), half-maximal inhibition (IC50) was put at 2800 nM. In the series with MRSA, the MIC was no less than 100 µM. Further, the “LD50 HepG2” value with HepG2 (human) is “>=100 μM”.
Consider `Cc1ccc(S(=O)(=O)c2nnn3c2[nH]c(=O)c2ccccc23)c(Br)c1` [Compound 37, 3-(2-Bromo-4-methyl-phenyl)sulfonyl-4H-triazolo[1,5-a]quinazolin-5-one], for which, in series [1], the minimal effective concentration came to 4 µg/mL, the IC95 worked out at 3.65 µg/mL (≈ 8.71 µM) and half-maximal inhibition (IC50) was put at 1.25 µg/mL (≈ 2.98 µM). For the same compound, the IC50 in the series on MRSA (USA300 isolate) worked out at 1500 nM. For the same compound, the MIC in the series on MRSA was no less than 100 µM. Besides, the “LD50 HepG2” value in the series on HepG2 (human) is given as “>=100 μM”.
In the case of `Cc1ccc(S(=O)(=O)c2nnn3c2[nH]c(=O)c2ccc(N4CCC4)cc23)c(C)c1` [Compound 45, 8-(azetidin-1-yl)-3-(2,4-dimethylphenyl)sulfonyl-4H-triazolo[1,5-a]quinazolin-5-one], in series [1], the minimal effective concentration came to 6 µg/mL, the IC95 turned out to be 8.85 µg/mL (≈ 21.6 µM) and the IC50 was 1.7 µg/mL (≈ 4.15 µM). In the series on MRSA, the MIC was no less than 100 µM. In the series with HepG2 (compounds 0.8-100 μM, SEAP readout), the “LD50 HepG2” value is listed as “>=100 μM”.
For the compound `Cc1ccc(S(=O)(=O)c2nnn3c2[nH]c(=O)c2cc(O)ccc23)c(C)c1` [Compound 46, 3-(2,4-dimethylphenyl)sulfonyl-7-hydroxy-4H-triazolo[1,5-a]quinazolin-5-one], in series [1], the minimal effective concentration was 1 µg/mL, the IC95 worked out at 1.4 µg/mL (≈ 3.78 µM) and the IC50 was determined as 0.4 µg/mL (≈ 1.08 µM). For the same compound, the MIC in the series on MRSA was no less than 100 µM. The “LD50 HepG2” value with HepG2 (human) is “>=100 μM”.
For `COc1cccc2c(=O)[nH]c3c(S(=O)(=O)c4ccc(C)cc4C)nnn3c12` [Compound 47, 3-(2,4-dimethylphenyl)sulfonyl-9-methoxy-4H-triazolo[1,5-a]quinazolin-5-one], in that order: 2 µg/mL, 1.95 µg/mL (≈ 5.07 µM), 0.5 µg/mL (≈ 1.3 µM), no less than 100 µM and “>=100 μM”.
For `Cc1ccc(S(=O)(=O)c2nnn3c2[nH]c(=O)c2ccc(NCCN4CCOCC4)cc23)c(C)c1` [Compound 48, 3-(2,4-dimethylphenyl)sulfonyl-8-(2-morpholinoethylamino)-4H-triazolo[1,5-a]quinazolin-5-one], in that order: 8 µg/mL, 7 µg/mL (≈ 14.5 µM), 1.6 µg/mL (≈ 3.32 µM), 50 µM (≈ 24.1 µg/mL) and 50 µM.
The like results for `Cc1ccc(S(=O)(=O)c2nnn3c2[nH]c(=O)c2ccc(NC4CCOCC4)cc23)c(C)c1` [Compound 49, 3-(2,4-dimethylphenyl)sulfonyl-8-(tetrahydropyran-4-ylamino)-4H-triazolo[1,5-a]quinazolin-5-one] were, in that order, 3 µg/mL, 4.5 µg/mL (≈ 9.92 µM), 0.75 µg/mL (≈ 1.65 µM), no less than 100 µM and 50 µM.
Turning to `Cc1ccc(S(=O)(=O)c2nnn3c2[nH]c(=O)c2cccc(O)c23)c(C)c1` [Compound 50, 3-(2,4-dimethylphenyl)sulfonyl-9-hydroxy-4H-triazolo[1,5-a]quinazolin-5-one], in series [1], the minimal effective concentration came to 3 µg/mL, the concentration for an effect of 95% (IC95) came out at 3.75 µg/mL (≈ 10.1 µM) and half-maximal inhibition (IC50) required 1.05 µg/mL (≈ 2.83 µM). Moreover, the MIC with MRSA is no less than 100 µM. For the same compound, the “LD50 HepG2” value in the series on HepG2 (human) is given as “>=100 μM”.
The like results for `Cc1cc(C)c(S(=O)(=O)c2nnn3c2[nH]c(=O)c2ccccc23)c(Cl)c1` [Compound 51, 3-(2-chloro-4,6-dimethyl-phenyl)sulfonyl-4H-triazolo[1,5-a]quinazolin-5-one] were, in that order, 6 µg/mL, 5.25 µg/mL (≈ 13.5 µM), 1.9 µg/mL (≈ 4.89 µM), no less than 100 µM and “>=100 μM”.
As to `Cc1cc(C)c(S(=O)(=O)c2nnn3c2[nH]c(=O)c2ccccc23)c(Br)c1` [Compound 52, 3-(2-bromo-4,6-dimethyl-phenyl)sulfonyl-4H-triazolo[1,5-a]quinazolin-5-one], in series [1], the minimal effective concentration stood at 6 µg/mL, the concentration for an effect of 95% (IC95) is 6.1 µg/mL (≈ 14.1 µM) and the IC50 is 1.95 µg/mL (≈ 4.5 µM). Besides, in the series on MRSA, the MIC is no less than 100 µM. Moreover, the “LD50 HepG2” value with HepG2 (human) was “>=100 μM”.
Consider `Cc1ccc(S(=O)(=O)c2nnn3c2[nH]c(=O)c2ccc(OCCO)cc23)c(C)c1` [Compound 53, 3-(2,4-dimethylphenyl)sulfonyl-8-(2-hydroxyethoxy)-4H-triazolo[1,5-a]quinazolin-5-one], for which, in series [1], the minimal effective concentration was determined as 2 µg/mL, the IC95 came out at 2.2 µg/mL (≈ 5.31 µM) and the IC50 amounted to 0.7 µg/mL (≈ 1.69 µM). In addition, the MIC with MRSA is no less than 100 µM. Besides, the “LD50 HepG2” value in the series on HepG2 (human) is given as “>=100 μM”.
With `COC(=O)CCCOc1ccc2c(=O)[nH]c3c(S(=O)(=O)c4ccc(C)cc4C)nnn3c2c1` [Compound 55, methyl 4-[[3-(2,4-dimethylphenyl)sulfonyl-5-oxo-4H-triazolo[1,5-a]quinazolin-8-yl]oxy]butanoate], in series [1], the minimal effective concentration worked out at 3 µg/mL, the IC95 stood at 2.45 µg/mL (≈ 5.21 µM) and the IC50 came out at 1 µg/mL (≈ 2.13 µM). For the same compound, in the series with MRSA, the MIC was no less than 100 µM. Also, the “LD50 HepG2” value in the series on HepG2 (human) is “>=100 μM”.
For `COCCOc1cc2c(cc1O)c(=O)[nH]c1c(S(=O)(=O)c3ccc(C)cc3C)nnn12` [Compound 58, 3-(2,4-dimethylphenyl)sulfonyl-7-hydroxy-8-(2-methoxyethoxy)-4H-triazolo[1,5-a]quinazolin-5-one], in that order: 4 µg/mL, 4.1 µg/mL (≈ 9.22 µM), 0.9 µg/mL (≈ 2.02 µM), no less than 100 µM and “>=100 μM”.
As to `COCCOCCOCCOc1ccc2c(=O)[nH]c3c(S(=O)(=O)c4ccc(C)cc4C)nnn3c2c1` [Compound 59, 3-(2,4-dimethylphenyl)sulfonyl-8-[2-[2-(2-methoxyethoxy)ethoxy]ethoxy]-4H-triazolo[1,5-a]quinazolin-5-one], in series [1], the minimal effective concentration is 8 µg/mL, the IC95 was 6.5 µg/mL (≈ 12.6 µM) and the IC50 was determined as 2.6 µg/mL (≈ 5.03 µM). In the series on MRSA, the minimal inhibitory concentration (MIC) was no less than 100 µM. Moreover, in the series with HepG2 (human), the “LD50 HepG2” value was “>=100 μM”.
For `Cc1ccc(S(=O)(=O)c2nnn3c2[nH]c(=O)c2ccc(OCC4COC(C)(C)O4)cc23)c(C)c1` (centres unmarked) [Compound 60, 8-[(2,2-dimethyl-1,3-dioxolan-4-yl)methoxy]-3-(2,4-dimethylphenyl)sulfonyl-4H-triazolo[1,5-a]quinazolin-5-one], in that order: 3 µg/mL, 3.05 µg/mL (≈ 6.29 µM), 1 µg/mL (≈ 2.06 µM), no less than 100 µM and “>=100 μM”.
